Results: US20060211744A1, “3-Pyridinecarboxamide reduces nerve degeneration” (Children's Medical Center, priority 2005, published 2006)

Legend:
Format in all cases: cell-based
[1] = tested on: superior sympathetic ganglia (SCGs) and other neuronal types expressing mutant Nmnat1; assay: Axon degeneration induced by over-expression of mutant Nmnat1 in cultured neurons; conditions: no axotomy
Excerpt: We next examined whether decreasing neuronal NAD levels is sufficient to induce axon degeneration in intact neurons. By sequence alignment, a conserved (T/H)XGH motif has been identified in the N-terminus of all Nmnat proteins from different species (Saridakis et al., 2001). This motif likely represents a critical active site, as a mutant enzyme with a point mutation at the last amino acid (H to A) loses its catalytic activity but retains its ability to bind the nicotinamide mononucleotide (NMN) substrate (Saridakis et al., 2001). Thus, we made a mutant Nmnat1 in which the critical histidine residue at amino acid 24 in this active site motif was substituted with alanine. Since most of the NAD in mammalian cells, except for liver and kidney cells, is synthesized by recycling degraded NAD products such as nicotinamide via the salvage pathway (Shibata et al., 1991, Rongvaux et al., 2003), over-expressing this mutant Nmnat1 would be expected to sequester the limited substrates, thus decreasing cellular NAD levels. […] As a result, neurons expressing this mutant Nmnat1 developed signs of axon degeneration in the absence of axotomy, concomitant with decreases in neuronal NAD and ATP levels.
In addition, a caspase inhibitor Z-DEVD-fink also had no effect on the axon degeneration induced by this mutant Nmnat1 expression.

[2] = tested on: cultured DRG neurons (transected axons); assay: Axon degeneration after transection of axons of cultured DRG neurons (Wallerian degeneration)
Procedure: As a first step in examining the role of NAD in Wallerian degeneration, we used an ultra-sensitive high-performance liquid chromatography (HPLC) method (Micheli and Sestini, 1997) to measure the concentration of NAD and its derivatives in degenerating axons. To do this, the acidic lysates were prepared from axonal segments collected at different time points after transecting the axons from cultured dorsal root ganglia (DRG) and resolved by reverse-phase chromatography. 2 hr after axotomy, when the transected axons were still morphologically indistinguishable from their uncut controls, NAD levels began to decrease. This NAD decrease continued over the course of degeneration, reaching about 50% at 4 hr post-axotomy, to almost undetectable levels by 6 hr after axotomy, when early morphological signs of degeneration began to develop. […] By a similar approach of alkaline extraction (Micheli and Sestini, 1997), it has been difficult for us to detect NADH in the axonal extracts, presumably due to the low abundance of NADH and the high NAD/NADH ratio reported in mammalian cells (Zhang et al., 2002, Kasischke et al., 2004, Kannurpatti et al., 2004).
To definitively determine whether preventing the local decrease in NAD levels could mediate axon protection, we employed soma-free axonal segments that have been separated from their soma as models to examine the protective effects of different pharmacological treatments. It has been shown that exogenously provided NAD, when directly added to the culture medium of DRG neurons, can be transported across the axonal membrane (Araki et al., 2004). Thus, we first examined the protective effects of different concentrations of NAD added to the culture before or after axon transection and removal of ganglia.
To further assess the local and nuclear contribution to such an NAD-dependent protection, we compared the protective effects of NAD provided at different time points. […] In this respect, our results are inconsistent with those shown by Araki et al (2004), possibly due to the different concentrations of NAD used in our studies (1-20 mM) and by Araki et al (0.1 to 1 mM).
We next attempted to explore the possible mechanisms underlying this local NAD-dependent axon protection. […] A possible explanation for this discrepancy between Araki et al (2004) and our results is the different approaches used to block Sirt1 activity. […] It is known that […], other sirturins exist and some of these proteins are localized in the cytoplasmic compartment (Onyango et al., 2002; North et al., 2003).

[3] = tested on: cultured hippocampal neurons; assay: Synaptic loss and process degeneration in cultured hippocampal neurons (dominant-negative Nmnat1)
Excerpt: We next attempted to examine whether decreasing NAD levels can induce similar “dying-back” axon degeneration in neurons with established synaptic connections. Such experiments might allow us to assess whether the degenerative processes in axons and other neuronal structures, including synaptic structures and dendritic processes, share similar mechanisms. To do this, we introduced both wild type and dominant negative Nmnat1 into cultured hippocampal neurons at 20 days in vitro (DIV 20), when their synaptic connections have formed and matured (Brewer et al. 1993), and examined their effects on axons as well as dendrites and synapses. As a conventional approach to visualize these neuronal structures, we also co-infected the hippocampal neurons with HSV expressing YFP. […] Moreover, neuronal NAD levels declined from 24-48 hr post-infection with viruses expressing dominant-negative Nmnat1 but not wild type Nmnat1 or YFP. Thus, we decided to focus our analysis on the first 60 hours post-infection.
To monitor changes in synaptic structures, we co-infected DIV20 neurons with HSV expressing YFP and wild type or the mutant Nmnat1, and quantified both spine density and the length and branching of axons and dendrites. As the density of dendritic spines has been considered a reliable indicator for synapse number (reviewed by Hering and Sheng, 2001), we performed high-resolution YFP imaging in neurons co-expressing YFP and Nmnat1 proteins at the indicated time points post-infection to measure the spine densities in these co-infected neurons. Dendrite length and branching patterns were analyzed using Sholl's method of regularly spaced concentric circles centered on the neuronal soma (Sholl, 1953). […]
In the experiments described above, we also performed immunostaining with antibodies against the presynaptic marker bassoon, and found a decrease of positively-stained synaptic structures. However, due to the complex morphology of the axons that makes it extremely difficult to quantify the axonal length in DIV20 hippocampal neurons, we […]. […]

SMILES: COC(=O)CC[C@H](NC(=O)[C@H](CC(=O)OC)NC(=O)OCc1ccccc1)C(=O)N[C@H](C(=O)N[C@@H](CC(=O)OC)C(=O)CF)C(C)C [Z-DEVD-fink]
- axon degeneration induced by mutant Nmnat1 expression [1]: no effect

SMILES: NC(=O)c1ccc[n+]([C@@H]2O[C@H](COP(=O)([O-])OP(=O)(O)OC[C@H]3O[C@@H](n4cnc5c(N)ncnc54)[C@H](O)[C@@H]3O)[C@@H](O)[C@H]2O)c1 [NAD, nicotinamide adenine dinucleotide]
- concentrations resulting in significant protective effects on axon degeneration ([2]; added to culture medium of DRG neurons): 1 to 20 mM

SMILES: Oc1ccc(C=Cc2cc(O)cc(O)c2)cc1 [resveratrol]
- changes (spine density, dendrites) induced by dominant-negative Nmnat1 ([3]; DIV20 hippocampal neurons): did not affect the changes
- extent of axon degeneration ([2]; a range of concentrations): failed to observe any significant change

SMILES: CC(NC(=O)c1ccccc1/N=C/c1c(O)ccc2ccccc12)c1ccccc1 (stereo not drawn) [sirtinol]
- dendritic spine quantity or structure, compound alone ([3]; from 50 to 100 μM, up to 72 hr): did not induce significant changes
- attenuation of the protective effect of Nmnat1 or NAD ([2]; sirturin inhibitors, nicotinamide at 50 μM): did not attenuate the protective effect
